{"source": "paper PMC6522524", "about": "(Nature Communications, 2019)", "key": {"[1]": {"tested_on": "HBsAg in HepG2.2.15 cells", "assay": "Secreted HBsAg ELISA, HepG2.2.15 cells", "format": "cell-based, Hepatitis B virus", "method": "(§1) Secreted HBsAg (f, i respectively) was quantified by ELISA.\n(§2) An HBsAg ELISA kit (KA0286, Abnova) was used to quantify HBsAg protein. Briefly, culture media were incubated in individual wells of the capture plates for 2 h. After washing, horseradish peroxidase-labeled rabbit anti-HBV surface antibody was added, followed by incubation for an additional 2 h. The substrate solution was added for 15–60 min and absorbance at 450 nm was measured."}, "[2]": {"settings": "ref https://www.drugbank.ca/; cited from earlier work"}, "[3]": {"tested_on": "HepG2 cells transfected with pHBV1.2×", "settings": "0.1–10 μM, 6 days"}, "[4]": {"molecular_target": "HBV core protein (pCDNA3-Core, Y118 wild-type) in Huh-7 cells (Hepatitis B virus genotype C, UniProt P0C6H6)", "sequence (P0C6H6 whole entry)": "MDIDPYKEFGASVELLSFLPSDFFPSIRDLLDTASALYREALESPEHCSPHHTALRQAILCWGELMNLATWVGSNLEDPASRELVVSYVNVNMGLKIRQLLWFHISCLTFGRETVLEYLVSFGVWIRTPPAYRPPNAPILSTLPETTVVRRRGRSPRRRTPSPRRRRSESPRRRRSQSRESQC", "assay": "cell-based", "format": "cell-based"}, "[5]": {"tested_on": "HBV (genotype D) in Huh-7-NTCP cells", "assay": "In vitro HBV infection model, Huh-7-NTCP cells: secreted HBV DNA", "description": "(§3) To isolate the secreted HBV DNA, culture media were collected and centrifuged at 15,000 × g to remove debris. The medium was diluted 1:1 with phosphate-buffered saline (PBS), and 1 M NaOH solution was added to a final concentration of 0.1 M. The mixture was incubated at 37 °C for 1 h. Protein was denatured by adding 2 M Tris-HCl (pH 7.5) solution to a final concentration of 0.2 M and incubating the mixture at 98 °C for 5 min. The protein precipitate was removed by centrifugation at 15,000 × g, and the supernatant was subjected to PCR with an HBV DNA primer and probe set (Supplementary Table 1). […] To isolate intracellular HBV DNA, the cells were lysed on ice with lysis buffer (50 mM Tris-HCl, pH 7.5, 1 mM EDTA, 1% NP40) for 10 min. After removing cell debris and nuclei by centrifugation at 15,000 × g, the supernatant was treated with micrococcal nuclease (0.25 U per μL, M0247, New England Biolabs) at 37 °C for 1 h. The micrococcal nuclease was then inactivated by adding EGTA to a final concentration of 10 mM. Thereafter intracellular HBV DNA was extracted with a G-spin^TM total kit (17046, Intron). The isolated intracellular HBV DNA was subjected to PCR with an HBV DNA primer and probe set (Supplementary Table 1). cccDNA was isolated by the Hirt extraction method[54]. […]"}, "BALB/c male mice": {"tested_on": "BALB/c male mice", "settings": "mouse, in vivo, po", "method": "Five mice were included in each group. Mortality was monitored daily, and bodyweight was measured every other day. On day 28, blood was taken from the orbital sinus, and white blood cells, red blood cells and platelets were counted. Blood urea nitrogen, creatinine, glucose, total bilirubin, total cholesterol, triglyceride, albumin, total protein, aspartate aminotransferase, alanine aminotransferase (ALT), sodium, potassium, and chloride were measured. Urinalysis was performed including urobilinogen, glucose, bilirubin, ketone, specific gravity, blood, pH, protein, nitrate, and leukocytes.\nSupplementary Table 3. Mean numbers of blood cells, and parameters for kidney and liver\nData are expressed as means ± standard deviations.\nAbbreviations: WBC, white blood cell, AST, aspartate transaminase; ALT, alanine transaminase; ALP,\nalkaline phosphatase; BUN, blood urea nitrogen; Na, sodium; K, potassium; Cl. Chloride; S.G, specific"}, "[6]": {"tested_on": "intracellular HBV DNA in HepG2.2.15 and HBV 1.2X adr transfected HepG2 cells", "assay": "Southern blot analysis of intracellular HBV DNA", "format": "cell-based, Hepatitis B virus", "settings": "Fig. 4c", "excerpt": "HBV DNA was separated on a 1% agarose gel, blotted onto a nylon membrane (Hybond N + , RPN203B, GE Healthcare), and hybridized with a biotin-labeled full length HBV fragment prepared with the BioPrime™ DNA labeling system (18094011, ThermoFisher)."}, "[7]": {"tested_on": "HBsAg in HepG2 cells transfected with pHBV1.2×", "assay": "Secreted HBsAg ELISA, HepG2 cells transfected with pHBV1.2×", "format": "cell-based, Hepatitis B virus", "method": "as §1, §2"}, "HepG2.2.15 cells": {"tested_on": "HepG2.2.15 cells", "settings": "0.1–10 μM, 6 days"}, "[8]": {"tested_on": "HBV (pHBV1.2× adr) in transfected HepG2 cells", "assay": "microbe, parasite or virus in culture", "format": "cell-based, Hepatitis B virus", "settings": "Hepatitis B virus, HepG2, 144 h; HBV1.2× adr transfected cells, 6 days; read-out: IC50, HBV DNA secretion"}, "[9]": {"tested_on": "HBV (pHBV1.2× adr) in transfected HepG2 cells", "assay": "microbe, parasite or virus in culture", "format": "cell-based, Hepatitis B virus", "settings": "Hepatitis B virus, HepG2, 144 h; HBV1.2× adr transfected cells, 6 days; read-out: IC50, intracellular HBV DNA"}, "in vitro": {"assay": "in vitro", "format": "cell-based, human", "settings": "human, Cell viability(%)", "method": "Supplementary Fig. 11. Effect of FBS serum iron level on Huh-7, HepG2, and HepG2.2.15 cell\na Cells were maintained in medium supplemented with 2% FBS or 10% FBS for 1 day and treated with\nAfter 6 days, cytotoxicity was measured. b Cells were treated with\nthe ± SD. *p < 0.05 by unpaired two-tailed Student’s t-test."}, "[10]": {"tested_on": "HBV (ayw subtype, genotype D) replicon in HepG2.2.15 cells", "assay": "microbe, parasite or virus in culture", "format": "cell-based, Hepatitis B virus", "settings": "Hepatitis B virus"}, "[11]": {"tested_on": "HBV (genotype D) in PXB mice", "settings": "mouse, in vivo"}, "[12]": {"tested_on": "HBV rcDNA in HepG2-NTCP cells", "assay": "In vitro HBV infection model, HepG2-NTCP cells: intracellular HBV rcDNA", "description": "as §3"}, "[13]": {"tested_on": "HBV replicative plasmid pAAV-HBV1.2× in C57BL/6 mice", "assay": "Hydrodynamic injection mouse model (pAAV-HBV1.2×, C57BL/6 mice)", "format": "in vivo"}, "[14]": {"tested_on": "HBV rcDNA in Huh-7-NTCP cells", "assay": "In vitro HBV infection model, Huh-7-NTCP cells: intracellular HBV rcDNA", "description": "as §3"}, "[15]": {"tested_on": "HBV cccDNA in HepG2-NTCP cells", "assay": "In vitro HBV infection model, HepG2-NTCP cells: intracellular cccDNA", "description": "HepG2 and Huh-7 cells permanently expressing NTCP were generated by infecting them with an NTCP-encoding recombinant retrovirus and isolating GFP-expressing cells.\nThe isolated intracellular HBV DNA was subjected to PCR with an HBV DNA primer and probe set (Supplementary Table 1). cccDNA was isolated by the Hirt extraction method[54]. Briefly, the cells were lysed in SDS lysis buffer (50 mM Tris-HCl, pH 8.0, 10 mM EDTA, 150 mM NaCl, 1% SDS), and the lysates were mixed with KCl to a final concentration of 0.5 M. After incubation at 4 °C for 30 min, each lysate was centrifuged and the supernatant was extracted three times with phenol and once with chloroform. The DNA was then recovered by ethanol precipitation, and treated with T5 nuclease (10 U per μg for 0.5 h, M0363, New England Biolabs), and the enzyme was subsequently heat-denatured at 70 °C. The isolated cccDNA was subjected to PCR with a cccDNA primer and probe set (Supplementary Table 1).\nHepG2-NTCP and Huh-7-NTCP cells were cultured in 12-well plates with the indicated compound(s) for 4 h, after which the cells were infected with HBV particles (10^7 viral genome equivalent per mL, genotype D) and treated with the indicated compound(s) for another 16 h. […]\nQuantitative PCR with an HBV DNA primer and probe set was used to measure intracellular\ncccDNA. The data are expressed as means ± SDs. […]"}, "[16]": {"settings": "Huh-7, read-out: Relative intensity (Folds), intracellular capsid, AVERAGE"}, "[17]": {"settings": "Huh-7, read-out: Relative intensity (Folds), intracellular capsid, individual samples"}, "[18]": {"settings": "HepG2.2.15, 144 h, read-out: Relative secreted HBV DNA level (Folds), AVERAGE"}, "[19]": {"settings": "HepG2.2.15, 144 h, read-out: Relative secreted HBV DNA level (Folds), individual samples"}, "[20]": {"settings": "5 mg per kg oral daily, by day 5"}}, "note": "Where “and” joins values, the source holds several entries; their conditions need not be identical. Equal values may be shown once. Entries after “also recorded” stand apart in the source; their conditions may differ. Read-outs that look alike come from different tables or passages of the source.", "data": [{"compound": "Cc1cc(C2CCCCC2)n(O)c(=O)c1", "note": "[Ciclopirox, 6-cyclohexyl-1-hydroxy-4-methyl-2(1 H)-pyridone]", "values": [{"measurement": "HBsAg production", "setting": "[1]", "result": "no effect"}, {"measurement": "pKa value (acidic)", "setting": "[2]", "result": 6.84}, {"measurement": "cytotoxicity", "setting": "[3]", "result": "no significant cytotoxicity"}, {"measurement": "intracellular HBV capsid assembly", "setting": "[4]", "result": "inhibited HBV capsid assembly; also recorded: affected intracellular HBV capsid assembly"}, {"measurement": "activity at 0.1 µM", "setting": "[4]; [16]", "result": 92.1, "unit": "%"}, {"measurement": "activity at 0.5 µM", "setting": "[4]; [16]", "result": 95.1, "unit": "%"}, {"measurement": "activity at 1 µM", "setting": "[4]; [16]", "result": 82.9, "unit": "%"}, {"measurement": "activity at 5 µM", "setting": "[4]; [16]", "result": 20.4, "unit": "%"}, {"measurement": "activity at 10 µM", "setting": "[4]; [16]", "result": 2.39, "unit": "%"}, {"measurement": "activity at 0.1 µM", "setting": "[4]; [17]", "result": 90, "unit": "%"}, {"measurement": "activity at 0.5 µM", "setting": "[4]; [17]", "result": 92.6, "unit": "%"}, {"measurement": "activity at 5 µM", "setting": "[4]; [17]", "result": 17.9, "unit": "%"}, {"measurement": "activity at 10 µM", "setting": "[4]; [17]", "result": 2.39, "unit": "%"}, {"measurement": "secretion of HBV DNA", "setting": "[5]", "result": "dropped markedly"}, {"measurement": "Cl", "setting": "BALB/c male mice; 1 mg/kg/day", "result": "100.0 ± 1.0", "unit": "mmol/L"}, {"measurement": "Cl", "setting": "BALB/c male mice; 5 mg/kg/day", "result": "99.0 ± 1.0", "unit": "mmol/L"}, {"measurement": "intracellular HBV DNA levels (Southern blot)", "setting": "[6]", "result": "reduced intracellular HBV DNA levels in a dose-dependent manner"}, {"measurement": "HBsAg production", "setting": "[7]", "result": "no effect"}, {"measurement": "cytotoxicity", "setting": "HepG2.2.15 cells", "result": "no significant cytotoxicity"}, {"measurement": "IC50", "setting": "[8]", "result": "0.75 ± 0.15", "unit": "µM"}, {"measurement": "IC50", "setting": "[9]", "result": "0.8 ± 0.18", "unit": "µM"}, {"measurement": "viability at 0.1 µM", "setting": "in vitro; AVERAGE", "result": 99.9, "unit": "%"}, {"measurement": "viability at 0.2 µM", "setting": "in vitro; AVERAGE", "result": 99.8, "unit": "%"}, {"measurement": "viability at 0.5 µM", "setting": "in vitro; AVERAGE", "result": 99.7, "unit": "%"}, {"measurement": "viability at 1 µM", "setting": "in vitro; AVERAGE", "result": 99.7, "unit": "%"}, {"measurement": "viability at 2 µM", "setting": "in vitro; AVERAGE", "result": 98, "unit": "%"}, {"measurement": "viability at 5 µM", "setting": "in vitro; AVERAGE", "result": 96.5, "unit": "%"}, {"measurement": "viability at 10 µM", "setting": "in vitro; AVERAGE", "result": 94.6, "unit": "%"}, {"measurement": "viability at 0.1 µM", "setting": "in vitro; individual samples", "result": 98.5, "unit": "%"}, {"measurement": "viability at 0.2 µM", "setting": "in vitro; individual samples", "result": 98.3, "unit": "%"}, {"measurement": "viability at 0.5 µM", "setting": "in vitro; individual samples", "result": 98.2, "unit": "%"}, {"measurement": "viability at 1 µM", "setting": "in vitro; individual samples", "result": 96.6, "unit": "%"}, {"measurement": "viability at 2 µM", "setting": "in vitro; individual samples", "result": 95.4, "unit": "%"}, {"measurement": "viability at 5 µM", "setting": "in vitro; individual samples", "result": 91.5, "unit": "%"}, {"measurement": "inhibition at 1 µM", "setting": "[10]; HepG2.2.15, 72 h, read-out: % of inhibition (ETV =100%), initial screening (3days)", "result": 142, "unit": "%"}, {"measurement": "inhibition at 1 µM", "setting": "[10]; HepG2.2.15, 144 h, read-out: % of inhibition (ETV =100%), confirmation (6days)", "result": 88.6, "unit": "%"}, {"measurement": "IC50", "setting": "[10]; HepG2.2.15, 144 h, read-out: IC50, HBV DNA secretion", "result": "0.88 ± 0.07", "unit": "µM"}, {"measurement": "activity at 0.1 µM", "setting": "[10]; [18]", "result": 102, "unit": "%"}, {"measurement": "activity at 0.2 µM", "setting": "[10]; [18]", "result": 81.1, "unit": "%"}, {"measurement": "activity at 0.5 µM", "setting": "[10]; [18]", "result": 52.1, "unit": "%"}, {"measurement": "activity at 1 µM", "setting": "[10]; [18]", "result": 51.6, "unit": "%"}, {"measurement": "activity at 2 µM", "setting": "[10]; [18]", "result": 29.1, "unit": "%"}, {"measurement": "activity at 5 µM", "setting": "[10]; [18]", "result": 23.5, "unit": "%"}, {"measurement": "activity at 10 µM", "setting": "[10]; [18]", "result": 4.49, "unit": "%"}, {"measurement": "activity at 0.1 µM", "setting": "[10]; [19]", "result": 102, "unit": "%"}, {"measurement": "activity at 0.2 µM", "setting": "[10]; [19]", "result": 83, "unit": "%"}, {"measurement": "activity at 0.5 µM", "setting": "[10]; [19]", "result": 48.1, "unit": "%"}, {"measurement": "activity at 1 µM", "setting": "[10]; [19]", "result": 49.9, "unit": "%"}, {"measurement": "activity at 2 µM", "setting": "[10]; [19]", "result": 29, "unit": "%"}, {"measurement": "Serum HBV DNA, AVERAGE", "setting": "[11]", "result": 6.24, "unit": "log copies/mL"}, {"measurement": "Serum HBV DNA, individual samples", "setting": "[11]", "result": "6.248 log copies/mL and 5.238 log copies/mL and 7.238 log copies/mL"}, {"measurement": "cccDNA, AVERAGE", "setting": "[11]", "result": 0.2214, "unit": "log copies/cell"}, {"measurement": "cccDNA, individual samples", "setting": "[11]", "result": "0.22 log copies/cell and 0.29 log copies/cell and 0.16 log copies/cell"}, {"measurement": "HBV core protein levels in the liver", "setting": "[11]; po", "result": "significantly reduced HBV core protein levels in the liver"}, {"measurement": "HBeAg levels", "setting": "[11]; po", "result": "significantly decreased HBeAg levels"}, {"measurement": "Serum ALT levels", "setting": "[11]; po", "result": "decreased"}, {"measurement": "intrahepatic cccDNA", "setting": "[11]; po", "result": "significantly reduced the amount of intrahepatic cccDNA"}, {"measurement": "serum HBV DNA levels", "setting": "[11]; po", "result": "lowered serum HBV DNA levels significantly"}, {"measurement": "serum HBV DNA levels, combined with TDF", "setting": "[11]; po", "result": "these effects were enhanced when it was combined with TDF"}, {"measurement": "intracellular relaxed circular DNA levels", "setting": "[12]", "result": "dropped markedly"}, {"measurement": "HBV core protein levels in the liver", "setting": "[13]; [20]", "result": "reduced HBV core protein levels in the liver"}, {"measurement": "serum HBV DNA levels", "setting": "[13]; [20]", "result": "significantly lowered serum HBV DNA levels"}, {"measurement": "HBsAg, AVERAGE", "setting": "[13]; mouse, in vivo", "result": "278.443 ng/mL and 288.165 ng/mL and 304.224 ng/mL and 310.116 ng/mL"}, {"measurement": "intracellular relaxed circular DNA levels", "setting": "[14]", "result": "dropped markedly"}, {"measurement": "cccDNA levels", "setting": "[15]", "result": "dropped markedly"}]}]}
